{"source": "patent US10765114B2", "about": "“4-amino-6-(pyridyl and 2-substitutedphenyl)-picolinates and 6-amino-2-(pyridyl and 2-substitutedphenyl)-pyrimidine-4-carboxylates and their use as herbicides” (Dow AgroSciences LLC, priority 2013, dated 2020)", "key": {"[1]": {"tested_on": "Key Broadleaf Weed and Crop Species", "assay": "Post-Emergent Test II (Table 5)", "format": "in vivo", "conditions": "post-emergence, 336 h; for pest or weed control at 70 g/ha: application rate 70 (kg ai/ha; footnote: g ai/ha); for pest or weed control at 140 g/ha: application rate 140 (kg ai/ha; footnote: g ai/ha)", "summary_of_the_method": "(§1)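 Visual injury ratings (0 = no injury, 100 = complete kill) were taken 14 days after treatment relative to untreated plants. Seedlings at the first or second true leaf stage received an overhead spray at 187 L/ha, and solvent-blank sprayed plants served as controls.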"}, "[2]": {"tested_on": "Key Grass and Sedge Weeds as well as Grass Crops", "assay": "Post-Emergent Test II (Table 6)", "format": "in vivo", "conditions": "post-emergence, 336 h, 14 days after application; for pest or weed control at 70 g/ha: 70 g ai/ha; for pest or weed control at 140 g/ha: 140 g ai/ha", "summary_of_the_method": "as §1"}, "[3]": {"conditions": "Abutilon theophrasti, ABUTH: velvetleaf (Abutilon theophrasti), read-out: Visual Growth Reduction (%) 14 Days After Application ABUTH"}, "[4]": {"conditions": "Amaranthus retroflexus, AMARE: redroot pigweed (Amaranthus retroflexus), read-out: Visual Growth Reduction (%) 14 Days After Application AMARE"}, "[5]": {"conditions": "Brassica napus, BRSSS: oilseed rape, canola (Brassica napus), read-out: Visual Growth Reduction (%) 14 Days After Application BRSSS"}, "[6]": {"conditions": "Chenopodium album, CHEAL: lambsquarters (Chenopodium album), read-out: Visual Growth Reduction (%) 14 Days After Application CHEAL"}, "[7]": {"conditions": "Euphorbia heterophylla, EPHHL: wild poinsettia (Euphorbia heterophylla), read-out: Visual Growth Reduction (%) 14 Days After Application EPHHL"}, "[8]": {"conditions": "Helianthus annuus, HELAN: sunflower (Helianthus annuus), read-out: Visual Growth Reduction (%) 14 Days After Application HELAN"}, "[9]": {"conditions": "Viola tricolor, VIOTR: wild pansy (Viola tricolor), read-out: Visual Growth Reduction (%) 14 Days After Application VIOTR"}, "[10]": {"conditions": "CYPSS, read-out: Visual Growth Reduction (%) 14 Days After Application CYPSS"}, "[11]": {"conditions": "DIGSA: crabgrass (Digitaria sanguinalis), read-out: Visual Growth Reduction (%) 14 Days After Application DIGSA"}, "[12]": {"conditions": "ECHSS, read-out: Visual Growth Reduction (%) 14 Days After Application ECHSS"}, "[13]": {"conditions": "ORYSS (crop), read-out: Visual Growth Reduction (%) 14 Days After Application ORYSS"}, "[14]": {"conditions": "SETFA: giant foxtail (Setaria faberi), read-out: Visual Growth Reduction (%) 14 Days After Application SETFA"}, "[15]": {"conditions": "SORVU: grain sorghum (Sorghum vulgare), read-out: Visual Growth Reduction (%) 14 Days After Application SORVU"}, "[16]": {"conditions": "TRZSS (crop), read-out: Visual Growth Reduction (%) 14 Days After Application TRZSS"}, "[17]": {"conditions": "ZEAMX: maize, corn (Zea mays), read-out: Visual Growth Reduction (%) 14 Days After Application ZEAMX"}}, "note": "Like-named read-outs stand apart in the source and are kept apart here."}
{"smiles": "COC(=O)c1nc(-c2ccc(I)c(F)c2C)cc(N)c1Cl", "note": "[Compound 25, methyl 4-amino-3-chloro-6-(3-fluoro-4-Iodo-2-methylphenyl)picolinate]", "values": [{"measurement": "pest or weed control at 70 g/ha", "setting": "[1]; [3]", "value": "95 to 100", "unit": "%"}, {"measurement": "pest or weed control at 140 g/ha", "setting": "[1]; [3]", "value": "95 to 100", "unit": "%"}, {"measurement": "pest or weed control at 70 g/ha", "setting": "[1]; [4]", "value": "95 to 100", "unit": "%"}, {"measurement": "pest or weed control at 140 g/ha", "setting": "[1]; [4]", "value": "95 to 100", "unit": "%"}, {"measurement": "pest or weed control at 70 g/ha", "setting": "[1]; [5]", "value": "60 to 74", "unit": "%"}, {"measurement": "pest or weed control at 140 g/ha", "setting": "[1]; [5]", "value": "75 to 84", "unit": "%"}, {"measurement": "pest or weed control at 70 g/ha", "setting": "[1]; [6]", "value": "85 to 94", "unit": "%"}, {"measurement": "pest or weed control at 140 g/ha", "setting": "[1]; [6]", "value": "85 to 94", "unit": "%"}, {"measurement": "pest or weed control at 70 g/ha", "setting": "[1]; [7]", "value": "0 to 29", "unit": "%"}, {"measurement": "pest or weed control at 140 g/ha", "setting": "[1]; [7]", "value": "0 to 29", "unit": "%"}, {"measurement": "pest or weed control at 70 g/ha", "setting": "[1]; [8]", "value": "60 to 74", "unit": "%"}, {"measurement": "pest or weed control at 140 g/ha", "setting": "[1]; [8]", "value": "75 to 84", "unit": "%"}, {"measurement": "pest or weed control at 70 g/ha", "setting": "[1]; [9]", "value": "0 to 29", "unit": "%"}, {"measurement": "pest or weed control at 140 g/ha", "setting": "[1]; [9]", "value": "0 to 29", "unit": "%"}, {"measurement": "pest or weed control at 70 g/ha", "setting": "[2]; [10]", "value": "0 to 29", "unit": "%"}, {"measurement": "pest or weed control at 140 g/ha", "setting": "[2]; [10]", "value": "0 to 29", "unit": "%"}, {"measurement": "pest or weed control at 70 g/ha", "setting": "[2]; [11]", "value": "0 to 29", "unit": "%"}, {"measurement": "pest or weed control at 140 g/ha", "setting": "[2]; [11]", "value": "0 to 29", "unit": "%"}, {"measurement": "pest or weed control at 70 g/ha", "setting": "[2]; [12]", "value": "0 to 29", "unit": "%"}, {"measurement": "pest or weed control at 140 g/ha", "setting": "[2]; [12]", "value": "0 to 29", "unit": "%"}, {"measurement": "pest or weed control at 70 g/ha", "setting": "[2]; [13]", "value": "0 to 29", "unit": "%"}, {"measurement": "pest or weed control at 140 g/ha", "setting": "[2]; [13]", "value": "0 to 29", "unit": "%"}, {"measurement": "pest or weed control at 70 g/ha", "setting": "[2]; [14]", "value": "0 to 29", "unit": "%"}, {"measurement": "pest or weed control at 140 g/ha", "setting": "[2]; [14]", "value": "0 to 29", "unit": "%"}, {"measurement": "pest or weed control at 70 g/ha", "setting": "[2]; [15]", "value": "0 to 29", "unit": "%"}, {"measurement": "pest or weed control at 140 g/ha", "setting": "[2]; [15]", "value": "0 to 29", "unit": "%"}, {"measurement": "pest or weed control at 70 g/ha", "setting": "[2]; [16]", "value": "0 to 29", "unit": "%"}, {"measurement": "pest or weed control at 140 g/ha", "setting": "[2]; [16]", "value": "0 to 29", "unit": "%"}, {"measurement": "pest or weed control at 70 g/ha", "setting": "[2]; [17]", "value": "0 to 29", "unit": "%"}, {"measurement": "pest or weed control at 140 g/ha", "setting": "[2]; [17]", "value": "0 to 29", "unit": "%"}]}
{"smiles": "Nc1cc(-c2ccc(Cl)c(F)c2C(=O)O)nc(C(=O)O)c1Cl", "note": "[Compound 56, 4-Amino-6-(2-carboxy-4-chloro-3-fluorophenyl)-3-chloropicolinic acid]", "values": [{"measurement": "pest or weed control at 70 g/ha", "setting": "[1]; [3]", "value": "0 to 29", "unit": "%"}, {"measurement": "pest or weed control at 140 g/ha", "setting": "[1]; [3]", "value": "0 to 29", "unit": "%"}, {"measurement": "pest or weed control at 70 g/ha", "setting": "[1]; [4]", "value": "0 to 29", "unit": "%"}, {"measurement": "pest or weed control at 140 g/ha", "setting": "[1]; [4]", "value": "0 to 29", "unit": "%"}, {"measurement": "pest or weed control at 70 g/ha", "setting": "[1]; [5]", "value": "0 to 29", "unit": "%"}, {"measurement": "pest or weed control at 140 g/ha", "setting": "[1]; [5]", "value": "0 to 29", "unit": "%"}, {"measurement": "pest or weed control at 70 g/ha", "setting": "[1]; [6]", "value": "45 to 59", "unit": "%"}, {"measurement": "pest or weed control at 140 g/ha", "setting": "[1]; [6]", "value": "75 to 84", "unit": "%"}, {"measurement": "pest or weed control at 70 g/ha", "setting": "[1]; [7]", "value": "0 to 29", "unit": "%"}, {"measurement": "pest or weed control at 140 g/ha", "setting": "[1]; [7]", "value": "0 to 29", "unit": "%"}, {"measurement": "pest or weed control at 70 g/ha", "setting": "[1]; [8]", "value": "0 to 29", "unit": "%"}, {"measurement": "pest or weed control at 140 g/ha", "setting": "[1]; [8]", "value": "0 to 29", "unit": "%"}, {"measurement": "pest or weed control at 70 g/ha", "setting": "[1]; [9]", "value": "0 to 29", "unit": "%"}, {"measurement": "pest or weed control at 140 g/ha", "setting": "[1]; [9]", "value": "0 to 29", "unit": "%"}, {"measurement": "pest or weed control at 70 g/ha", "setting": "[2]; [10]", "value": "0 to 29", "unit": "%"}, {"measurement": "pest or weed control at 140 g/ha", "setting": "[2]; [10]", "value": "0 to 29", "unit": "%"}, {"measurement": "pest or weed control at 70 g/ha", "setting": "[2]; [11]", "value": "0 to 29", "unit": "%"}, {"measurement": "pest or weed control at 140 g/ha", "setting": "[2]; [11]", "value": "0 to 29", "unit": "%"}, {"measurement": "pest or weed control at 70 g/ha", "setting": "[2]; [12]", "value": "0 to 29", "unit": "%"}, {"measurement": "pest or weed control at 140 g/ha", "setting": "[2]; [12]", "value": "0 to 29", "unit": "%"}, {"measurement": "pest or weed control at 70 g/ha", "setting": "[2]; [13]", "value": "0 to 29", "unit": "%"}, {"measurement": "pest or weed control at 140 g/ha", "setting": "[2]; [13]", "value": "0 to 29", "unit": "%"}, {"measurement": "pest or weed control at 70 g/ha", "setting": "[2]; [14]", "value": "0 to 29", "unit": "%"}, {"measurement": "pest or weed control at 140 g/ha", "setting": "[2]; [14]", "value": "0 to 29", "unit": "%"}, {"measurement": "pest or weed control at 70 g/ha", "setting": "[2]; [15]", "value": "0 to 29", "unit": "%"}, {"measurement": "pest or weed control at 140 g/ha", "setting": "[2]; [15]", "value": "0 to 29", "unit": "%"}, {"measurement": "pest or weed control at 70 g/ha", "setting": "[2]; [16]", "value": "0 to 29", "unit": "%"}, {"measurement": "pest or weed control at 140 g/ha", "setting": "[2]; [16]", "value": "0 to 29", "unit": "%"}, {"measurement": "pest or weed control at 70 g/ha", "setting": "[2]; [17]", "value": "0 to 29", "unit": "%"}, {"measurement": "pest or weed control at 140 g/ha", "setting": "[2]; [17]", "value": "0 to 29", "unit": "%"}]}
